Data reported in US20140135357A1, “DOSE REGIME FOR CAMPTOTHECIN DERIVATIVES” (Taiwan Liposome Company, Ltd., priority 2012, published 2014).
Like-named read-outs stand apart in the source and are kept apart here.

Assays:
[1] = human, in vivo
clinical = conditions: human, in vivo

SMILES: CC[C@@]1(O)C(=O)OCc2c1cc1n(c2=O)Cc2cc3c(CN(C)C)c(O)ccc3nc2-1 [Topotecan, reference compound]
- Dose-normalized AUClast [1]: 8.52 ± 3.09 nM*h/(mg/m^2)
- Dose-normalized Cmax [1]: 1.95 ± 1.04 nM/(mg/m^2)
- difference between PK profiles on Day 1 and Day 8 [1]: no significant difference
- dose proportionality of exposure [1]: roughly dose proportional
- AUC0-t ([1]; 3 mg/m2): 7.866 ng·h/mL
- AUC0-t ([1]; 6 mg/m2): 21.656 ng·h/mL
- AUC0-t ([1]; 9 mg/m2): 37.978 ng·h/mL
- AUC0-t ([1]; 20 mg/m2): 44.026 ng·h/mL
- AUC0-t ([1]; 30 mg/m2): 120.74 ng·h/mL
- AUC0-t ([1]; 35 mg/m2): 190.91 ng·h/mL
- Cmax ([1]; 35 mg/m2): 58.075 ng/mL
- Tmax ([1]; 35 mg/m2): 0.604 (0.156) hr
- t1/2 ([1]; 35 mg/m2): 6.177 (3.376) hr
- AUC0-t ([1]; 50 mg/m2): 207.30 ng·h/mL
- AUC0-t ([1]; 60 mg/m2): 207.43 ng·h/mL
- time at which peak plasma concentrations (Cmax) were achieved ([1]; iv): within one hour
- time of rapid rise of the metabolites in the serum after starting the infusion ([1]; iv): ≤ 15 min
- AUC0-t (clinical; 1.3 mg/m2, AUC0-t): 5.32 ng·h/mL
- Cmax (clinical; 1.3 mg/m2, Cmax): 1.06 ng/mL
- Tmax (clinical; 1.3 mg/m2, Tmax): 0.906 h
- half-life (clinical; 1.3 mg/m2, t1/2): 4.32 h
- AUC0-t (clinical; 1.5 mg/m2, AUC0-t): 6.01 ng·h/mL
- Cmax (clinical; 1.5 mg/m2, Cmax): 1.52 ng/mL
- Tmax (clinical; 1.5 mg/m2, Tmax): 0.628 h
- half-life (clinical; 1.5 mg/m2, t1/2): 4.76 h
- AUC0-t (clinical; 3 mg/m2, AUC0-t): 11.7 ng·h/mL
- Cmax (clinical; 3 mg/m2, Cmax): 2.1 ng/mL
- half-life (clinical; 3 mg/m2, t1/2): 7.03 h
- AUC0-t (clinical; 6 mg/m2, AUC0-t): 21.5 ng·h/mL
- Cmax (clinical; 6 mg/m2, Cmax): 4.83 ng/mL
- Tmax (clinical; 6 mg/m2, Tmax): 0.989 h
- half-life (clinical; 6 mg/m2, t1/2): 6.87 h
- AUC0-t (clinical; 9 mg/m2, AUC0-t): 27.6 ng·h/mL
- Cmax (clinical; 9 mg/m2, Cmax): 6.38 ng/mL
- Tmax (clinical; 9 mg/m2, Tmax): 1.15 h
- half-life (clinical; 9 mg/m2, t1/2): 7.7 h
- AUC0-t (clinical; 13.5 mg/m2): 37.6 ng·h/mL
- Cmax (clinical; 13.5 mg/m2): 8.71 ng/mL
- half-life (clinical; 13.5 mg/m2): 6.29 h
- half-life (clinical; 20 mg/m2): 4.65 h
- AUC0-t (clinical; 20 mg/m2, AUC0-t): 47.3 ng·h/mL
- Cmax (clinical; 20 mg/m2, Cmax): 11.3 ng/mL
- Tmax (clinical; 20 mg/m2, Tmax): 0.483 h
- half-life (clinical; 20 mg/m2, t1/2): 5.07 h
- half-life (clinical; 30 mg/m2): 4.63 h
- AUC0-t (clinical; 30 mg/m2, AUC0-t): 97 ng·h/mL
- Tmax (clinical; 30 mg/m2, Tmax): 1.54 h
- half-life (clinical; 30 mg/m2, t1/2): 4.06 h
- AUC0-t (clinical; 35 mg/m2, AUC0-t): 176 ng·h/mL
- Cmax (clinical; 35 mg/m2, Cmax): 51.3 ng/mL
- Tmax (clinical; 35 mg/m2, Tmax): 1 h
- half-life (clinical; 35 mg/m2, t1/2): 7.66 h
- Tmax (clinical; 40 mg/m2, Tmax): 0.85 h
- half-life (clinical; 40 mg/m2, t1/2): 5.84 h
- half-life (clinical; 50 mg/m2): 5.51 h
- AUC0-t (clinical; 50 mg/m2, AUC0-t): 208 ng·h/mL
- Cmax (clinical; 50 mg/m2, Cmax): 37.5 ng/mL
- Tmax (clinical; 50 mg/m2, Tmax): 0.903 h
- half-life (clinical; 50 mg/m2, t1/2): 7.39 h
- AUC0-t (clinical; 60 mg/m2, AUC0-t): 215 ng·h/mL
- Cmax (clinical; 60 mg/m2, Cmax): 57.1 ng/mL
- Tmax (clinical; 60 mg/m2, Tmax): 0.837 h
- half-life (clinical; 60 mg/m2, t1/2): 5.18 h
- Tmax (clinical; 60 mg/m2, tmax): 0.93 ± 0.82 h
- half-life (clinical; T1/2): > 2.5 h
